Data set [1] deals with human non-small cell lung cancer (A549). Description: Cytotoxicity assay (WST-8), A549. Format: cell-based. On the procedure: (§1) PANC-1 and MRC-5 was cultured in complete growth medium according to the ATCC protocols. Cells were grown at 37° C. and 5% CO2 in humidified air.
(§2) Cytotoxicity of total extracts of S. molesta was tested against PANC-1, A549, PC-3, and MRC-5. Cytotoxicity of the fractions was determined using A549 cells, a human non-small lung cancer cell line. Fractions were tested at 25, 50, and 100 μg/mL. The isolated pure compounds were tested in each of the cultured human tumor and normal cell lines at various concentrations between 1 and 100 μM with three replications. Human tumor and normal cells were inoculated into 96 well microtiter plates in 90 μL at plating densities ranging from 5,000 to 40,000 cells/well (measured by Z2 Coulter Counter of Beckman) depending on the doubling time of individual cell lines. Cell growth and viability was measured by WST-8 (Water Soluble Tetrazolium) assays following a standard protocol (Cell Counting Kit-8, Dojindo Molecular, Maryland). The WST-8 assay measured the relative activity of mitochondrial reductase enzymes in viable cells. A control WST reading (T0) before treatment was measured, then cells were continuously exposed to isolates for 48 h. After WST added and incubated for 2 h, the amount of formazan was measured by using a microplate spectrophotometer (μQuant spectrophotometer, Bio-Tek Instruments, Inc., Vermont) at 450 nm. TC or TD represents the readings of the untreated control or with tested compounds. Percent cell-growth (G) and percent cell-growth inhibition (GI) was calculated as: G=(TD−T0/TC−T0)×100; GI=[1−(TD−T0/TC−T0)]×100 for which TD≥T0; and G=(TD−T0/T0)×100; GI=[1−(TD−T0/T0)]×100 for which TD≤T0. […] Cancer drug doxorubicin was used as the positive controls in the cell-based assays.

Data set [2] concerns human prostate cancer (PC-3). Kind of data set: Cytotoxicity assay (WST-8), PC-3. Format: cell-based. How it is done:
as §1, §2
(Tetrazolium assays rely on reduction of a dye to a coloured formazan, in cell work by metabolically active cells.)

Data set [3] relates to human leukemia (HL-60). Kind of data set: Cytotoxicity assay (WST-8), HL-60. In kind it is cell-based.
Data set [4] deals with human exocrine pancreatic cancer (PANC-1). Description: Cytotoxicity assay (WST-8), PANC-1. In kind it is cell-based. How it is done:
as §1, §2

Data set [5] concerns human exocrine pancreatic cancer (BxPC-3). Kind of data set: Cytotoxicity assay (WST-8), BxPC-3. Format: cell-based.
Data set [6] in a line: Cytotoxicity assay (WST-8), MRC-5. In kind it is cell-based, human. The following applies: human. On the procedure:
as §1, §2

Data set [7] deals with normal human lung fibroblasts cells (MRC-5). Description: Cytotoxicity assay (WST-8), MRC-5. Format: cell-based. On the procedure:
as §1, §2

Where [8] appears, read: Homo sapiens, A549, 48 h, read-out: Cytotoxic activity (GI50) A549.
The mark [9] stands for this setting: Homo sapiens, A549, Table 1, read-out: Activity against human non-small cell lung tumor A549 (GI50) (converted).
[10] abbreviates: Homo sapiens, 48 h, read-out: Cytotoxic activity (GI50) PC-3.
[11] abbreviates: Homo sapiens, HL-60, 48 h, read-out: Cytotoxic activity (GI50) HL-60.
The mark [12] stands for this setting: Homo sapiens, PANC-1, 48 h, read-out: Cytotoxic activity (GI50) PANC-1.
Where [13] appears, read: Homo sapiens, BXPC-3, 48 h, read-out: Cytotoxic activity (GI50) BxPC-3.
The mark [14] stands for this setting: Homo sapiens, A549, Table 7, WST-8, 48 h exposure, mean ± S.D., read-out: Cytotoxic activity (GI50) A549.
Where [15] appears, read: Homo sapiens, Table 1, read-out: Activity against human prostate tumor PC-3 (GI50) (converted).
[16] abbreviates: Homo sapiens, HL-60, Table 1, read-out: Activity against human leukemia HL-60 (GI50) (converted).
Setting [17] is: Homo sapiens, PANC-1, Table 1, read-out: Activity against human exocrine pancreatic tumor PANC-1 (GI50).
Where [18] appears, read: Homo sapiens, BXPC-3, Table 1, read-out: Activity against human exocrine pancreatic tumor BxPC-3 (GI50) (converted).
Where [19] appears, read: Homo sapiens, Table 7, WST-8, 48 h exposure, mean ± S.D., read-out: Cytotoxic activity (GI50) PC-3.
Setting [20] is: Homo sapiens, HL-60, Table 7, WST-8, 48 h exposure, mean ± S.D., read-out: Cytotoxic activity (GI50) HL-60.
Setting [21] is: Homo sapiens, PANC-1, Table 7, WST-8, 48 h exposure, mean ± S.D., read-out: Cytotoxic activity (GI50) PANC-1.
[22] abbreviates: Homo sapiens, BXPC-3, Table 7, WST-8, 48 h exposure, mean ± S.D., read-out: Cytotoxic activity (GI50) BxPC-3.
The mark [23] stands for this setting: Table 7, WST-8, 48 h exposure, mean ± S.D., read-out: Cytotoxic activity (GI50) A549.
Setting [24] is: Table 7, WST-8, 48 h exposure, mean ± S.D., read-out: Cytotoxic activity (GI50) PC-3.
Where [25] appears, read: Table 7, WST-8, 48 h exposure, mean ± S.D., read-out: Cytotoxic activity (GI50) HL-60.
[26] abbreviates: Table 7, WST-8, 48 h exposure, mean ± S.D., read-out: Cytotoxic activity (GI50) PANC-1.
[27] abbreviates: Table 7, WST-8, 48 h exposure, mean ± S.D., read-out: Cytotoxic activity (GI50) BxPC-3.

SMILES strings stand for the structures. Where two headings read alike, the source gives them in different places. Some results are limits rather than exact numbers.

Regarding `CC(C)c1cc2c(cc1O)[C@@]1(C)CCCC(C)(C)C1=CC2=O` [Compound 9, 5,6-dehydrosugiol], the GI50 in data set [1] (setting [8]) was 84.5 ± 18.7 µM; in data set [1] (setting [9]), 84.5 µM; in data set [2] (setting [10]), greater than 100 µM; in data set [3] (setting [11]), 92.8 ± 9.98 µM; in data set [4] (setting [12]), greater than 100 µM; in data set [5] (setting [13]) it was greater than 100 µM. The same molecule registered a GI50 at 48 h in data set [6] greater than 100 µM.

For `COc1cc2c(cc1C(C)C)C(=O)C(O)=C1C(C)(C)CCC[C@@]12C` [Compound 11, montbretyl 12-methyl ether], the 50% growth inhibitory concentration (GI50) in data set [1] (setting [9]) is 21.2 µM; in data set [1] (setting [14]), 21.2 ± 6.21 µM.

Consider `CC(C)c1cc2c(c(O)c1O)[C@@]1(C)CCCC(C)(C)[C@@H]1CC2=O` [Compound 12, 11-hydroxysugiol], for which the 50% growth inhibitory concentration (GI50) in data set [1] (setting [8]) is 35 ± 6.2 µM; in data set [1] (setting [9]) it was 35 µM; in data set [2] (setting [10]), 41 ± 7.9 µM; in data set [2] (setting [15]) it was 41 µM; in data set [3] (setting [11]), 35.3 ± 0.63 µM; in data set [3] (setting [16]), 35.3 µM. The GI50 in data set [4] (setting [12]) was 43.1 ± 8.32 µM; in data set [4] (setting [17]), 43.1 µM; in data set [5] (setting [13]) it was 45 ± 8.33 µM; in data set [5] (setting [18]), 45 µM. The same molecule showed a GI50 at 48 h in data set [6] of 40.2 ± 0.91 µM.

As to `CC(C)c1cc2c(cc1O)[C@@]1(C)CCCC(C)(C)[C@@H]1CC2=O` [Compound 13, sugiol], the GI50 in data set [1] (setting [14]) was 79.8 ± 2.18 µM; in data set [2] (setting [19]), greater than 100 µM; in data set [3] (setting [20]), 68.6 ± 13.5 µM; in data set [4] (setting [21]), 87.9 ± 11.2 µM; in data set [5] (setting [22]), 36.1 ± 1.5 µM; in data set [7] (human, 48 h), greater than 100 µM.

Consider `CC(C)c1cc2c(cc1O)[C@@]1(C)CCCC(C)(C)[C@@H]1CC2` [Compound 14, ferruginol], for which the GI50 turned out to be 30.7 ± 5.22 µM in data set [1] (setting [14]); 56.5 ± 16.5 µM in data set [2] (setting [19]); 27.3 ± 8.95 µM in data set [3] (setting [20]); 41.1 ± 14.1 µM in data set [4] (setting [21]); 21.1 ± 0.51 µM in data set [5] (setting [22]); 40 ± 7.74 µM in data set [7] (human, 48 h).

On to `CC(C)c1cc2c(cc1O)[C@@]1(C)CCCC(C)(C)C1CC2O` (some centres unmarked) [Compound 15, 7-hydroxyferruginol], for which the concentration for 50% growth inhibition (GI50) is 75.1 ± 7.04 µM in data set [1] (setting [8]); 75.1 µM in data set [1] (setting [9]); 85.6 ± 5.3 µM in data set [2] (setting [10]); 85.6 µM in data set [2] (setting [15]); 75.2 ± 1.02 µM in data set [3] (setting [11]); 75.2 µM in data set [3] (setting [16]). Moreover, the GI50 in data set [4] (setting [12]) is 78.2 ± 13.5 µM; in data set [4] (setting [17]), 78.2 µM; in data set [5] (setting [13]), 74.7 ± 11.1 µM; in data set [5] (setting [18]), 74.7 µM. In data set [6], halving of growth (GI50 at 48 h) required 70.5 ± 7.21 µM.

Regarding `CC(C)c1cc2c(cc1O)[C@@]1(C)CCCC(C)(C)C1C=C2` (some centres unmarked) [Compound 16, 6,7-dehydroferruginol], the 50% growth inhibitory concentration (GI50) is 53.8 ± 9.65 µM in data set [1] (setting [8]); 53.8 µM in data set [1] (setting [9]); 58.1 ± 3.28 µM in data set [2] (setting [10]); 58.1 µM in data set [2] (setting [15]); 66.52 ± 0.04 µM in data set [3] (setting [11]); 66.5 µM in data set [3] (setting [16]). In addition, the GI50 is 46.7 ± 11 µM in data set [4] (setting [12]), 46.7 µM in data set [4] (setting [17]), 37.5 ± 4.01 µM in data set [5] (setting [13]) and 37.5 µM in data set [5] (setting [18]). For the same molecule, the GI50 at 48 h in data set [6] came out at 59.2 ± 7.56 µM.

Take `CC(C)c1cc2ccc3c(c2cc1O)CCCC3(C)C` [Compound 17, 12-hydroxy simonellite]: the GI50 in data set [1] (setting [9]) is 42.2 µM; in data set [1] (setting [14]), 42.2 ± 3.89 µM; in data set [2] (setting [15]) it was 43.6 µM; in data set [2] (setting [19]), 43.6 ± 11.9 µM; in data set [3] (setting [16]), 50 µM; in data set [3] (setting [20]) it was 50 ± 15.2 µM. Also, the GI50 in data set [4] (setting [17]) is 37.5 µM; in data set [4] (setting [21]), 37.5 ± 5.72 µM; in data set [5] (setting [18]) it was 36.4 µM; in data set [5] (setting [22]), 36.4 ± 8.08 µM; in data set [7] (human, 48 h), 55.4 ± 4.94 µM.

For `CC(C)c1ccc2c3c(ccc2c1)C(C)(C)CCC3` [Compound 18, simonellite], the GI50 in data set [1] (setting [23]), in data set [2] (setting [24]), in data set [3] (setting [25]), in data set [4] (setting [26]), in data set [5] (setting [27]) and in data set [7] was greater than 100 µM throughout.

Take `CC(C)C1=Cc2ccc3c(c2C(=O)C1=O)C(=O)CCC3(C)C` [Compound 19, 1-oxomiltirone]: the concentration for 50% growth inhibition (GI50) in data set [1] (setting [23]) was found to be 24.9 ± 5.94 µM; in data set [2] (setting [24]), 19 ± 5.34 µM; in data set [3] (setting [25]), 23.3 ± 6.66 µM; in data set [4] (setting [26]), 32.1 ± 2.75 µM; in data set [5] (setting [27]), 20.5 ± 2 µM; in data set [7], 20.4 ± 3.36 µM.

Regarding `CC(C)C1=C(O)C(=O)C2=C(CC[C@H]3C(C)(C)CCC[C@]23C)C1=O` [Compound 20, royleanone], the GI50 in data set [1] (setting [14]) is 30.1 ± 3.64 µM; in data set [2] (setting [19]), 27.1 ± 11.8 µM; in data set [3] (setting [20]), 36.3 ± 7.14 µM; in data set [4] (setting [17]) it was 52.6 µM; in data set [4] (setting [21]) it was 52.6 ± 18.8 µM; in data set [5] (setting [18]), 51 µM. In data set [5] (setting [22]), the GI50 amounted to 51 ± 10.4 µM. Further, the GI50 at 48 h in data set [6] turned out to be 45.7 ± 2.32 µM.

With `CC(C)C1=C(O)C(=O)C2=C(C=CC3C(C)(C)CCC[C@]23C)C1=O` (some centres unmarked) [Compound 21, 6,7-dehydroroyleanone], the GI50 in data set [1] (setting [8]) is 48 ± 7.75 µM; in data set [1] (Homo sapiens, A549, read-out: Activity against human non-small cell lung tumor A549 (GI50)) it was 48 µM; in data set [2] (setting [10]), 46.3 ± 6.6 µM; in data set [2] (Homo sapiens, read-out: Activity against human prostate tumor PC-3 (GI50)), 46.3 µM; in data set [3] (setting [11]), 30 ± 8.3 µM; in data set [3] (Homo sapiens, HL-60, read-out: Activity against human leukemia HL-60 (GI50)), 30 µM. The GI50 was 51.3 ± 10 µM in data set [4] (setting [12]); 51.3 µM in data set [4] (Homo sapiens, PANC-1, read-out: Activity against human exocrine pancreatic tumor PANC-1 (GI50)); 41.7 ± 2.92 µM in data set [5] (setting [13]); 41.7 µM in data set [5] (Homo sapiens, BXPC-3, read-out: Activity against human exocrine pancreatic tumor BxPC-3 (GI50)). Further, the GI50 at 48 h in data set [6] (Table 7, normal lung cells, WST-8, 48 h exposure, mean ± S.D., read-out: Cytotoxic activity (GI50) MRC-5) amounted to 40.2 ± 2.06 µM.

With `CC(C)c1cc(C=O)c([C@@]2(C)CCCC(C)(C)[C@H]2C=O)cc1O` [Compound 22, 12-hydroxy-6,7-secoabieta-8,11,13-triene-6,7-dial], the GI50 is 93.8 ± 21.4 µM in data set [1] (setting [8]) and 93.8 µM in data set [1] (setting [9]).

Usually GI50 stands for the concentration that inhibits growth by half.
